Earlier results, collected in US20160193276A1 (Teva Pharmaceutical Industries, Ltd., priority 2012, published 2016).

Columns and labels:
[1] = system: patients with relapsing multiple sclerosis; settings: administered orally
[2] = system: MS patients; settings: 20 mg/day subcutaneous (s.c.)
[3] = system: rats; settings: orally administered
[4] = system: mice; settings: orally administered

L-glutamic acid polymer with L-alanine, L-lysine, L-tyrosine, acetate (salt) [glatiramer acetate]
Relapse rate or other clinical MRI parameters of disease activity [1]: did not affect | Total number of enhancing lesions as measured by MRI [2]: reduce | Induction of EAE [3]: inhibited | Induction of EAE [4]: inhibited
